Read-outs that look alike come from different tables or passages of the source.
What was measured:
[1] = tested on: patient with chronic progressive multiple sclerosis; assay type: in vivo
Excerpt: (§1) Currently, they are diagnosed with chronic-progressive multiple sclerosis. They are afflicted with visual impairments, chronic fatigue, difficulty with speech articulation, tremors in the right and left hands, decreased fine motor movement in the right greater than left hands and decreased motor strength in their lower extremities. They are without weight bearing and is confined to a wheelchair. When asked what their major barriers are as far as functional abilities on a day to day basis, they place fatigue at the top of their impairment list followed by speech difficulties and decreased fine motor movement of their hands. They experienced marked spasticity of their lower extremities with the progression of their neurological condition over the course of several years and eventually resorted to a baclofen pump which was implanted in 1997. […] They receive 85 micrograms of baclofen per day.

[2] = tested on: experimental autoimmune encephalomyelitis; experiment: EAE prevention therapy, daily functional score (Example 2); assay type: in vivo, female Lewis rats; conditions: score 0 to 4
Method: Thirty-two female Lewis rats are divided into four groups of eight each and on day one administered saline, citicoline (500 or 1000 mg/kg, i.p.), or dexamethasone (0.0375 mg/kg), respectively. Dexamethasone acts as a positive control through its ability to suppress immune function. […] Therapy is continued daily. […] Numerical values are averages of the functional scores in each treatment group from Days 14-21 of the study.

[3] = tested on: patients with bulbar palsy caused by ALS; experiment: Human study in bulbar palsy caused by ALS (Example 7); assay type: in vivo; conditions: 500-1000 mg citicoline daily
Method: Six patients with bulbar palsy caused by ALS are treated with 500-1000 mg each citicoline by injection (monosodium salt dissolved in 10 ml sterile isotonic solution of sodium chloride) or by a solid tablet or soft gel capsule orally and administered daily.

[4] = tested on: patients with chronic multiple sclerosis; experiment: Human study in chronic multiple sclerosis, EDSS and SNRS (Example 6); assay type: in vivo; conditions: 250, 500, or 1,000 mg each patient each day orally or intravenously for six months; eight patients
Method: A study of two sets of four patients each with chronic multiple sclerosis is undertaken. Each patient is first examined for normal hepatic, renal, and bone marrow functioning to establish baseline values. Each of the patients in each group is then treated either with citicoline dissolved in sterile preservative-free isotonic saline 10% or oral tablet or capsule. The citicoline is administered orally or intravenously at a dosage of 250, 500, or 1,000 mg each patient each day for six months. Patients are examined on a daily basis. During the treatment period, daily blood counts and twice weekly blood chemistries are performed on each patient. The neurologic function of each of these patients is measured using the expanded Krutzke disability status scale (EDSS), and the Scripps neurologic rating scale (SNRS).

patients = experiment: Observed tolerance of citicoline in patients; assay type: in vivo, human; conditions: doses about 250 mg to about 2000 mg for several weeks to several years
Excerpt: Dosages may be varied over time depending on the severity of symptoms, individual patient tolerance, route of administration and response to treatment. Treatment may be continued indefinitely if needed and if tolerated well.

[5] = tested on: patient with chronic progressive multiple sclerosis; experiment: Case, chronic progressive multiple sclerosis, citicoline response (Example 13); assay type: in vivo, human
Excerpt: as §1

[6] = tested on: patients suffering from ALS; experiment: Double-blind study against placebo in ALS, survival (Example 8); assay type: in vivo, human
Method: A double-blind study against placebo is performed as follows: 77 patients suffering from ALS are treated with 500 mg each citicoline by injection (monosodium salt dissolved in 10 ml sterile isotonic solution of sodium chloride) or be a solid tablet or soft gel capsule orally and administered daily, for a period of 12 to 18 months, and 78 patients receive a placebo. The results obtained are analyzed in terms of survival in the study, it being understood that “study drop-outs” (departures from the study) include individuals who actually die, and also individuals whose clinical state necessitates a tracheotomy or transfer to assisted ventilation.

[7] = patient history since around 1986
[8] = dexamethasone 0.0375 mg/kg daily from day one
[9] = citicoline 500 mg/kg i.p. daily from day one
[10] = citicoline 1000 mg/kg i.p. daily from day one

O=P1(N(CCCl)CCCl)NCCCO1 (stereo not drawn) [Cytoxan]
course of earlier treatment, tolerability [1, 7]: discontinued due to adverse events

Cn1cnc([N+](=O)[O-])c1Sc1ncnc2[nH]cnc12 [Imuran]
effect of earlier treatment on multiple sclerosis ([1]; in vivo): no effect

C[C@@H]1C[C@H]2[C@@H]3CCC4=CC(=O)C=C[C@]4(C)[C@@]3(F)[C@@H](O)C[C@]2(C)[C@@]1(O)C(=O)CO [Dexamethasone]
Mean Functional Score Day 14 [2, 8]: 0.14 | Mean Functional Score Day 15 [2, 8]: 0.42 | Mean Functional Score Day 16 [2, 8]: 0.0 | Mean Functional Score Day 17 [2, 8]: 0.14 | Mean Functional Score Day 18 [2, 8]: 0.28 | Mean Functional Score Day 19 [2, 8]: 0.64 | Mean Functional Score Day 20 [2, 8]: 0.57 | Mean Functional Score Day 21 [2, 8]: 0.64

C[N+](C)(C)CCOP(=O)(O)OP(=O)([O-])OC[C@H]1O[C@@H](n2ccc(N)nc2=O)[C@H](O)[C@@H]1O [citicoline, cytidine-5′-diphosphocholine]
side effects of this treatment [3]: insignificant | toxic side effects [4]: no evidence of any significant toxic side effects | Mean Functional Score Day 14 [2, 9]: 0.43 | Mean Functional Score Day 15 [2, 9]: 0.41 | Mean Functional Score Day 16 [2, 9]: 0.37 | Mean Functional Score Day 17 [2, 9]: 0.38 | Mean Functional Score Day 18 [2, 9]: 0.28 | Mean Functional Score Day 19 [2, 9]: 0.59 | Mean Functional Score Day 20 [2, 9]: 0.68 | Mean Functional Score Day 21 [2, 9]: 0.87 | Mean Functional Score Day 14 [2, 10]: 0.56 | Mean Functional Score Day 15 [2, 10]: 0.78 | Mean Functional Score Day 16 [2, 10]: 0.84 | Mean Functional Score Day 17 [2, 10]: 0.69 | Mean Functional Score Day 18 [2, 10]: 0.62 | Mean Functional Score Day 19 [2, 10]: 0.91 | Mean Functional Score Day 20 [2, 10]: 0.75 | Mean Functional Score Day 21 [2, 10]: 0.84 | patient tolerance (patients): tolerate citicoline well | adverse side effects ([5]; 500 mg per day every morning, first two weeks): no adverse side effects | balance and fatigue on the first two days of increased dosage ([5]; 1000 mg per day (500 mg a.m., 500 mg p.m.)): balance had been poor and that their fatigue had increased | fatigue after dosage increase ([5]; 2000 mg per day (1000 mg a.m., 1000 mg p.m.)): worsening of fatigue in the morning hours for approximately two days | patients who die (study drop-outs) ([6]; 500 mg citicoline daily for 12 to 18 months, 77 patients, placebo 50%): 20% | patients who die (study drop-outs) ([6]; subjects with early bulbar involvement or the bulbar form of ALS, 500 mg citicoline daily, placebo 65%): 30%

ACTH: drug often used to treat ALS or MS (SYSMEHFRWGKPVGKKRRPVKVYPNGAEDESAEAFPLEF; Corticotropin; UniProt P01189 138-176, looked up)
effect of earlier treatment on multiple sclerosis [1, 7]: worked initially

Nc1nc(Cl)nc2c1ncn2[C@H]1C[C@H](O)[C@@H](CO)O1 [Cladribine]
effect of earlier treatment on multiple sclerosis [1, 7]: no effect

NCC(CC(=O)O)c1ccc(Cl)cc1 (stereo not drawn) [baclofen]
ability to bear weight on lower extremities ([1]; baclofen pump, 85 micrograms per day): lessened their ability to bear weight on their lower extremities | spasticity in lower extremities ([1]; baclofen pump, continuous infusion into spinal fluid, 85 micrograms per day): reduced the spasticity considerably

C[C@]12C=CC(=O)C=C1CC[C@@H]1[C@@H]2C(=O)C[C@@]2(C)[C@H]1CC[C@]2(O)C(=O)CO [Prednisone]
effect of earlier treatment on multiple sclerosis [1, 7]: worked initially
